Here are results for six compounds from patent US9617267B2, “Compounds and methods for kinase modulation, and indications therefor” (Plexxikon Inc., priority 2009, dated 2017).

Data set [1] deals with B-Raf (Homo sapiens (Human), UniProt P15056). Briefly: B-Raf kinase activity biochemical assay (AlphaScreen, biotin-MEK1 phosphorylation). The following applies: B-Raf. The method, boiled down:
(§1)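 Biotin-MEK1 phosphorylation measured after 45 min kinase reaction at RT with 100 μM ATP final; compounds tested at 8 points from 0.1 mM DMSO stock.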
(Bead proximity is the source of the signal in Alpha formats.)

For data set [2], the system named is B-Raf. Described as above. The following applies: for Biochemical activity ratio B/V600E: ratio of IC50 B-Raf / B-Raf V600E; for Biochemical activity ratio B/C: ratio of IC50 B-Raf / c-Raf-1. An outline of the steps: as §1
Data set [3] deals with B-Raf V600E (Homo sapiens (Human), UniProt P15056, V600E). Briefly: B-Raf V600E kinase activity biochemical assay (AlphaScreen, biotin-MEK1 phosphorylation). The note with it: for IC50: B-Raf V600E; for Biochemical activity ratio V600E/C: ratio of IC50 B-Raf V600E / c-Raf-1. An outline of the steps: as §1
Data set [4] has as its target c-Raf-1 (Homo sapiens, UniProt P04049). Description: c-Raf-1 kinase activity biochemical assay (AlphaScreen, biotin-MEK1 phosphorylation). The method, boiled down: as §1
A short description of data set [5]: Relative solubility by turbidity threshold concentration in aqueous buffers (pH 1.5, 4.5, 6.8, 7.4). Type of data set: physicochemical. The note with it: for turbidity threshold (L, M, H) 1.4: pH 1.4 [sic] (method: SGF pH 1.5); for turbidity threshold (L, M, H) 4.5: pH 4.5 (SIF); for turbidity threshold (L, M, H) 6.8: pH 6.8 (SIF); for turbidity threshold (L, M, H) 7.4: pH 7.4 (HEPES). An outline of the steps:
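Solubility class (high >250 μM, moderate 31.3–250 μM, low <31.3 μM) comes from the concentration where absorbance reaches a 0.01 threshold, averaged across 490/535/650 nm. Samples were compound dilutions from DMSO stock, 1 μL into 99 μL buffer at pH 1.5, 4.5, 6.8 or 7.4.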

Data set [6] concerns the target CYP1A2 (Homo sapiens (Human), UniProt P05177). Description: CYP enzyme inhibition, fluorescent substrate (CEC). The method, boiled down: (§2)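 Ten-point 1:1 compound dilutions in NADPH-regenerating cofactor mix, pre-incubated 10 min at 37 °C before enzyme/substrate addition: CYP1A2 0.5 pmol with 5 μM CEC, 15 min, 409 ex/460 em; CYP2D6 1.5 pmol with 1.5 μM AMMC, 30 min, 409 ex/530 em. IC50 from fluorescent product vs concentration.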

The target of data set [7] is CYP2C19 (Homo sapiens (Human), UniProt P33261). Briefly: CYP enzyme inhibition, fluorescent substrate (CEC). An outline of the steps:
(§3)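 IC50 values come from plotting product fluorescence against compound concentration; inhibition lowers formation of the fluorescent metabolite. Ten-point twofold dilutions in co-factor mix were held 10 minutes at 37 °C before the enzyme reaction, also run at 37 °C.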

The target in data set [8] is CYP2C9 (Homo sapiens (Human), UniProt P11712). Briefly: CYP enzyme inhibition, fluorescent substrate (MFC). The method, boiled down: as §3
The target in data set [9] is CYP2D6 (Homo sapiens (Human), UniProt P10635). Briefly: CYP enzyme inhibition, fluorescent substrate (AMMC). Type of data set: in vitro ADME. The note with it: read-out: Cyp IC50 2D6. An outline of the steps:
as §2

Data set [10] has as its target CYP3A4(BFC) (Homo sapiens (Human), UniProt P08684). Description: CYP enzyme inhibition, fluorescent substrate BFC. The method, boiled down: as §3
Data set [11] deals with CYP3A4(BQ) (Homo sapiens (Human), UniProt P08684). Description: CYP enzyme inhibition, fluorescent substrate BQ. The method, boiled down: as §3
CYP3A4(BQ), sequence (P08684 whole entry): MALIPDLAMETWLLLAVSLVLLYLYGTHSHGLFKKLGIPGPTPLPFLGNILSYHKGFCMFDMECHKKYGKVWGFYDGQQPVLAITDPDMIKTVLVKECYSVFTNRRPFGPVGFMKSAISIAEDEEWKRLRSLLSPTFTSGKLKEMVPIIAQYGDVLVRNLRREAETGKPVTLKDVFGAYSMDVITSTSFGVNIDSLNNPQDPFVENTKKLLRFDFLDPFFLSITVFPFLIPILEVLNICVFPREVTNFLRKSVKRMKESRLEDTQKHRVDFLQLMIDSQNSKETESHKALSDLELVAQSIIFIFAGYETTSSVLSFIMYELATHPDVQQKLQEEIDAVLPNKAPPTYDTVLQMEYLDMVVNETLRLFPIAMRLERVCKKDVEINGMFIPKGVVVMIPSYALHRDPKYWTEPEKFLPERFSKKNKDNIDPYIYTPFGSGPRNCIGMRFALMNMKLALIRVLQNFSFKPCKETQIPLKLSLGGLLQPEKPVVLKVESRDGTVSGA

B-Raf (Homo sapiens (Human), UniProt P15056), sequence (P15056 whole entry): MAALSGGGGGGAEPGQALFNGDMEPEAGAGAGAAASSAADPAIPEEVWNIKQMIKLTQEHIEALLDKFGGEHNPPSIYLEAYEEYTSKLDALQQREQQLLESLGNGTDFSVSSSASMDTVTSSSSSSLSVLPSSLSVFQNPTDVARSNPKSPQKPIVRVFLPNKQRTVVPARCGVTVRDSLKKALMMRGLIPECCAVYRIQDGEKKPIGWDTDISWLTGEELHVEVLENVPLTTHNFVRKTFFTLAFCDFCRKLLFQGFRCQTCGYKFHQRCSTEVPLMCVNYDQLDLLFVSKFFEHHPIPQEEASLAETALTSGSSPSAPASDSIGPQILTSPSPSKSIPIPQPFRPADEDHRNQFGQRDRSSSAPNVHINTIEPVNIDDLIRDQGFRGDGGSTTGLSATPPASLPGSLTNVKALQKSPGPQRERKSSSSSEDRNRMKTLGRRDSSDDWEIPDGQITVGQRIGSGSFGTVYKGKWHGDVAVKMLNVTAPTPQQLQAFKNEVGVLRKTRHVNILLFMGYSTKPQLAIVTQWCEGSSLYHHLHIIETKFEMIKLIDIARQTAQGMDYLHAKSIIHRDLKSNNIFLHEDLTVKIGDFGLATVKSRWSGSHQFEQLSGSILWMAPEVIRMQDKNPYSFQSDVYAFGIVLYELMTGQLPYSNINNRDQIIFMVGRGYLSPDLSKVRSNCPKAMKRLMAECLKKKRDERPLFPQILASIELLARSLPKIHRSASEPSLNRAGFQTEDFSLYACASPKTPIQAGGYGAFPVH
CYP2C19, sequence (P33261 whole entry): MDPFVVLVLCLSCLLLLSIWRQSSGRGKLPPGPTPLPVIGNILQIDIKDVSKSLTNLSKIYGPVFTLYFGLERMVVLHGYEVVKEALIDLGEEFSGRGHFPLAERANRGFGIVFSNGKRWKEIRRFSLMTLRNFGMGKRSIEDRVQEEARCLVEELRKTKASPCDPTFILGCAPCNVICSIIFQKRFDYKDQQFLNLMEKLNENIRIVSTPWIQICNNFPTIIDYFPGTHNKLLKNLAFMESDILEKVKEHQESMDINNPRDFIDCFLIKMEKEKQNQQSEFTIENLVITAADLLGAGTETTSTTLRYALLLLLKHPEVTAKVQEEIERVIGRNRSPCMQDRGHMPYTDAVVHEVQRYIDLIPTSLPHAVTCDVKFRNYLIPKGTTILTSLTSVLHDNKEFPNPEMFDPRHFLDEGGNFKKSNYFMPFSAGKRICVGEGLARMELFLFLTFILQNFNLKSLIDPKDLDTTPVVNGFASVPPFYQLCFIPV
CYP2C9, sequence (P11712 whole entry): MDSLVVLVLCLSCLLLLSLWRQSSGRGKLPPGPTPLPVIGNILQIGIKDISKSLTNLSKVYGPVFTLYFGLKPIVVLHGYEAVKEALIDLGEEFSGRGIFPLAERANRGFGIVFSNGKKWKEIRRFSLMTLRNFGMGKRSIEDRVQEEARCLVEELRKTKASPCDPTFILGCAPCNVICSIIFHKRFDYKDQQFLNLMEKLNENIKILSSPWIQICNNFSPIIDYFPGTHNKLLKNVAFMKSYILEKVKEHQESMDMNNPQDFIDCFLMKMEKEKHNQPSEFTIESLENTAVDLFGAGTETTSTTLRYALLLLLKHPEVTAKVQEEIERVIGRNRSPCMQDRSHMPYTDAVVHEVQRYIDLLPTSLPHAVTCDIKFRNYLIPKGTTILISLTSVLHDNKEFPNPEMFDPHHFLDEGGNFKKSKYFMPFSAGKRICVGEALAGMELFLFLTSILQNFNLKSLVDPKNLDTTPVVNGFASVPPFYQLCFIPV
CYP2D6, sequence (P10635 whole entry): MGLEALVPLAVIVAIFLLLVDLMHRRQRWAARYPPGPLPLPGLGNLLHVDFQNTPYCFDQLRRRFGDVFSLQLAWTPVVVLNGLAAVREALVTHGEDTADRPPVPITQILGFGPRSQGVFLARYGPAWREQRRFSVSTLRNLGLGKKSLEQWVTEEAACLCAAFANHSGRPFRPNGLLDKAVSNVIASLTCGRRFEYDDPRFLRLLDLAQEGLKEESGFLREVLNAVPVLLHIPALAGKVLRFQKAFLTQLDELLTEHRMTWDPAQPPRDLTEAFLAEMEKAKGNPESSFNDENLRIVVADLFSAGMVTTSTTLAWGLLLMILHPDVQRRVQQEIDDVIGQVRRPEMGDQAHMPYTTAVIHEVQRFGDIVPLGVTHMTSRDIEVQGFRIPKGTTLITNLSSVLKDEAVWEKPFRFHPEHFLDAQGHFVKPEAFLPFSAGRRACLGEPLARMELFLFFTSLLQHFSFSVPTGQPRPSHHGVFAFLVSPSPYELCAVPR
CYP1A2, sequence (P05177 whole entry): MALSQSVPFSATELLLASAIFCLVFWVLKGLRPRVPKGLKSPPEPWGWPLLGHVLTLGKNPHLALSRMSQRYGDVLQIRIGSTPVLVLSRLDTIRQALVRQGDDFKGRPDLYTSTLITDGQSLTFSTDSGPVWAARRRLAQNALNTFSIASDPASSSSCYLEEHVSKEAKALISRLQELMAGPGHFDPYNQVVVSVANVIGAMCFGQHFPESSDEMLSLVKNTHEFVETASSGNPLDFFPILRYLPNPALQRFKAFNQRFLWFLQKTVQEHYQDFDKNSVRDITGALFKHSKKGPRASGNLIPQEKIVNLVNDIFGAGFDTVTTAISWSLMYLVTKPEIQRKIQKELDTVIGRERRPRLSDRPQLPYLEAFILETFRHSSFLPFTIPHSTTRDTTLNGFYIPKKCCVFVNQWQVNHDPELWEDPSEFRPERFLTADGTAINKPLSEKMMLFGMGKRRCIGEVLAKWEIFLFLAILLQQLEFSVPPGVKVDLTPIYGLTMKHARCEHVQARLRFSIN
CYP3A4(BFC), sequence (P08684 whole entry): as the sequence (P08684 whole entry) above
B-Raf V600E, sequence (P15056 whole entry V600E): as the sequence (P15056 whole entry) above, with V600E counted along it
c-Raf-1, sequence (P04049 whole entry, looked up): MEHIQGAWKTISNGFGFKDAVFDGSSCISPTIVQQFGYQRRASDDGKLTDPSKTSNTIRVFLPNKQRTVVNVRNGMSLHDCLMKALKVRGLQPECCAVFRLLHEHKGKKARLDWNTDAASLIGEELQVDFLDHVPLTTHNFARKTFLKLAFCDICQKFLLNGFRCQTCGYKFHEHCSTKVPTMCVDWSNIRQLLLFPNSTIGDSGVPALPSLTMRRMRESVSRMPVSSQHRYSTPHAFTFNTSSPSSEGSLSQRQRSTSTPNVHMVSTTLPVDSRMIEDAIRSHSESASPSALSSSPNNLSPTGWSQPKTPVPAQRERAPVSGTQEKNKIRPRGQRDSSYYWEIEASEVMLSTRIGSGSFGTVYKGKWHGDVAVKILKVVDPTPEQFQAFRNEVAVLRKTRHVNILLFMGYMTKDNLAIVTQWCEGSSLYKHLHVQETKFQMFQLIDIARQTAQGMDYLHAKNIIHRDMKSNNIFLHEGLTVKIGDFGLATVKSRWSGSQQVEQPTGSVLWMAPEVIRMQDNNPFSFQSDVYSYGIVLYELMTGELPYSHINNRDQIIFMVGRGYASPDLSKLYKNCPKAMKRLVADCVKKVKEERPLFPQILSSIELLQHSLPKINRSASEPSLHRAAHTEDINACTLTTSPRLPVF

Turning to `CCCS(=O)(=O)Nc1ccc(F)c(C(=O)c2c[nH]c3ncc(C#N)c(Cl)c23)c1F` [P-2004, Propane-1-sulfonic acid [3-(4-chloro-5-cyano-1H-pyrrolo[2,3-b]pyridine-3-carbonyl)-2,4-difluoro-phenyl]-amide], the IC50 is under 0.1 µM in data set [1]; under 0.1 µM in data set [3]; under 0.1 µM in data set [4]; over 10 µM in data set [6]; over 10 µM in data set [7]; under 5 µM in [8]. In addition, the IC50 in data set [9], in data set [10] and in data set [11] was over 10 µM each time. For the same compound, the “Biochemical activity ratio B/V600E” value in data set [2] is on record as 0.1-10. Besides, in data set [2], the “Biochemical activity ratio B/C” value is recorded as over 10. Further, the “Biochemical activity ratio V600E/C” value in data set [3] is reported as 0.1-10. Also, the “turbidity threshold (L, M, H) 1.4” value in [5] was “L (low solubility if the threshold concentration is <31.3 μM)”. Besides, the “turbidity threshold (L, M, H) 4.5” value in data set [5] was “L (low solubility if the threshold concentration is <31.3 μM)”. Also, in [5], the “turbidity threshold (L, M, H) 6.8” value is “L (low solubility if the threshold concentration is <31.3 μM)”. Besides, the “turbidity threshold (L, M, H) 7.4” value in data set [5] was “L (low solubility if the threshold concentration is <31.3 μM)”.
On to `CCCS(=O)(=O)Nc1ccc(F)c(C(=O)c2c[nH]c3ncc(C#N)c(OC)c23)c1F` [P-2005, Propane-1-sulfonic acid [3-(5-cyano-4-methoxy-1H-pyrrolo[2,3-b]pyridine-3-carbonyl)-2,4-difluoro-phenyl]-amide], for which the IC50 in data set [1] is under 0.1 µM; in data set [3], under 0.1 µM; in [4], under 0.1 µM; in [6] it was over 10 µM; in [7], over 10 µM; in data set [8] it was under 5 µM. Besides, the IC50 in data set [9], in data set [10] and in data set [11] was over 10 µM each time. For the same compound, the “Biochemical activity ratio B/V600E” value in data set [2] was 0.1-10. In addition, the “Biochemical activity ratio B/C” value in data set [2] was 0.1-10. Also, in data set [3], the “Biochemical activity ratio V600E/C” value is 0.1-10. Besides, the “turbidity threshold (L, M, H) 1.4” value in [5] is reported as “M (moderate solubility if the threshold concentration is 31.3 μM to 250 μM)”. Moreover, the “turbidity threshold (L, M, H) 4.5” value in [5] is “L (low solubility if the threshold concentration is <31.3 μM)”. For the same compound, the “turbidity threshold (L, M, H) 6.8” value in data set [5] is “L (low solubility if the threshold concentration is <31.3 μM)”. Moreover, the “turbidity threshold (L, M, H) 7.4” value in [5] is “M (moderate solubility if the threshold concentration is 31.3 μM to 250 μM)”.
`CCCS(=O)(=O)Nc1ccc(F)c(C(=O)c2c[nH]c3ncc(Cl)c(OC)c23)c1F` [P-2006, Propane-1-sulfonic acid [3-(5-chloro-4-methoxy-1H-pyrrolo[2,3-b]pyridine-3-carbonyl)-2,4-difluoro-phenyl]-amide]: the IC50 was under 0.1 µM in data set [1]; under 0.1 µM in [3]; under 0.1 µM in [4]; over 10 µM in [6]; under 5 µM in data set [7]; under 5 µM in data set [8]. Further, the results for the 50% inhibitory concentration (IC50) in [9], in data set [10] and in data set [11] were over 10 µM, 5 to 10 µM and over 10 µM, respectively. In [2], the “Biochemical activity ratio B/V600E” value is 0.1-10. Moreover, the “Biochemical activity ratio B/C” value in [2] was over 10. In addition, in [3], the “Biochemical activity ratio V600E/C” value was 0.1-10. For the same compound, the “turbidity threshold (L, M, H) 1.4” value in [5] is “M (moderate solubility if the threshold concentration is 31.3 μM to 250 μM)”. In [5], the “turbidity threshold (L, M, H) 4.5” value is recorded as “M (moderate solubility if the threshold concentration is 31.3 μM to 250 μM)”. For the same compound, the “turbidity threshold (L, M, H) 6.8” value in data set [5] is recorded as “M (moderate solubility if the threshold concentration is 31.3 μM to 250 μM)”. Besides, in [5], the “turbidity threshold (L, M, H) 7.4” value is “M (moderate solubility if the threshold concentration is 31.3 μM to 250 μM)”.
Consider `CCCS(=O)(=O)Nc1ccc(F)c(C(=O)c2c[nH]c3ncc(Cl)c(C#N)c23)c1F` [P-2007, Propane-1-sulfonic acid [3-(5-chloro-4-cyano-1H-pyrrolo[2,3-b]pyridine-3-carbonyl)-2,4-difluoro-phenyl]-amide], for which the half-inhibitory concentration (IC50) in data set [1] was under 0.1 µM; in [3] it was under 0.1 µM; in data set [4], under 0.1 µM; in [6] it was over 10 µM; in data set [7], over 10 µM; in data set [8] it was under 5 µM. For the same compound, the IC50 in data set [9], in data set [10] and in data set [11] was over 10 µM each time. The “Biochemical activity ratio B/V600E” value in data set [2] is 0.1-10. The “Biochemical activity ratio B/C” value in data set [2] was 0.1-10. In [3], the “Biochemical activity ratio V600E/C” value is on record as 0.1-10. Also, in [5], the “turbidity threshold (L, M, H) 1.4” value is reported as “M (moderate solubility if the threshold concentration is 31.3 μM to 250 μM)”. Also, the “turbidity threshold (L, M, H) 4.5” value in [5] was “M (moderate solubility if the threshold concentration is 31.3 μM to 250 μM)”. The “turbidity threshold (L, M, H) 6.8” value in data set [5] is listed as “M (moderate solubility if the threshold concentration is 31.3 μM to 250 μM)”. Moreover, in data set [5], the “turbidity threshold (L, M, H) 7.4” value is recorded as “M (moderate solubility if the threshold concentration is 31.3 μM to 250 μM)”.
Regarding `CCCS(=O)(=O)Nc1ccc(F)c(C(=O)c2c[nH]c3ncc(Cl)c(C)c23)c1F` [P-2008, Propane-1-sulfonic acid [3-(5-chloro-4-methyl-1H-pyrrolo[2,3-b]pyridine-3-carbonyl)-2,4-difluoro-phenyl]-amide], the IC50 in [1] was under 0.1 µM; in data set [3] it was under 0.1 µM; in [4], under 0.1 µM; in data set [6], over 10 µM; in data set [7], 5 to 10 µM; in data set [8], 5 to 10 µM. Moreover, the IC50 in data set [9], in data set [10] and in data set [11] was over 10 µM each time. The “Biochemical activity ratio B/V600E” value in data set [2] is on record as 0.1-10. Also, in data set [2], the “Biochemical activity ratio B/C” value is 0.1-10. Further, the “Biochemical activity ratio V600E/C” value in data set [3] is reported as 0.1-10. The “turbidity threshold (L, M, H) 1.4” value in [5] is reported as “L (low solubility if the threshold concentration is <31.3 μM)”. The “turbidity threshold (L, M, H) 4.5” value in [5] is “M (moderate solubility if the threshold concentration is 31.3 μM to 250 μM)”. Moreover, the “turbidity threshold (L, M, H) 6.8” value in data set [5] was “L (low solubility if the threshold concentration is <31.3 μM)”. Besides, the “turbidity threshold (L, M, H) 7.4” value in data set [5] is on record as “M (moderate solubility if the threshold concentration is 31.3 μM to 250 μM)”.
Take `N#Cc1c(F)cnc2[nH]cc(C(=O)c3c(F)ccc(NS(=O)(=O)c4ccc(C(F)(F)F)cc4)c3F)c12` [P-2009, N-[3-(4-Cyano-5-fluoro-1H-pyrrolo[2,3-b]pyridine-3-carbonyl)-2,4-difluoro-phenyl]-4-trifluoromethyl-benzenesulfonamide]: the IC50 in data set [1] was under 0.1 µM; in data set [3], over 0.1 µM; in [4], under 0.1 µM; in data set [6], over 10 µM; in [7], over 10 µM; in data set [8], over 10 µM. Also, the IC50 in [9], in data set [10] and in [11] was over 10 µM each time. For the same compound, the “Biochemical activity ratio B/V600E” value in data set [2] is 0.1-10. In data set [2], the “Biochemical activity ratio B/C” value is listed as over 10. For the same compound, in data set [3], the “Biochemical activity ratio V600E/C” value was over 10. In data set [5], the “turbidity threshold (L, M, H) 1.4” value is “L (low solubility if the threshold concentration is <31.3 μM)”. In addition, the “turbidity threshold (L, M, H) 4.5” value in [5] is recorded as “M (moderate solubility if the threshold concentration is 31.3 μM to 250 μM)”. In addition, the “turbidity threshold (L, M, H) 6.8” value in [5] was “M (moderate solubility if the threshold concentration is 31.3 μM to 250 μM)”. Moreover, the “turbidity threshold (L, M, H) 7.4” value in [5] is given as “M (moderate solubility if the threshold concentration is 31.3 μM to 250 μM)”.

As a reminder, the IC50 is the concentration that inhibits the measured activity by half.
